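Interpolation was linear, between the two tested concentrations surrounding the appropriate level; five concentrations were tested over 48 hours in 96-well plates. At the GI50, growth is halved. The concentration for full growth arrest is given as TGI.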
Tests used:
Test in all cases: NCI tumour cell line growth inhibition, 48 h
MDA-N = test system: MDA-N
KM20L2 colon = test system: KM20L2 colon
DLD-1 colon = test system: DLD-1 colon
HOP-18 NSCLC = test system: HOP-18 NSCLC
P388 leukemia = test system: P388 leukemia
XF 498 CNS = test system: XF 498 CNS
P388/ADR leukemia = test system: P388/ADR leukemia
M19-MEL melanoma = test system: M19-MEL melanoma
DMS 273 small cell lung = test system: DMS 273 small cell lung

**Q.** N#Cc1c(NC(=S)NC(=O)c2ccccc2)nc2c(c1-c1ccccc1)CCC2 was tested. Which TGI (MDA-N) did it give?
**A.** > 100 µM

**Q.** For CSC1=Nc2ccccc2N(C)c2c1c(-c1ccccc1)nn2C, which TGI (MDA-N) is on record?
**A.** > 100 µM

**Q.** For O=C1CC(=O)N(c2ccccc2)N1/C(=C/c1ccccc1)c1ccccc1, which TGI (MDA-N) is on record?
**A.** 34.3 µM

**Q.** With COC1OC(=O)[C@H]2O[N+]([O-])=C(C)[C@@H]12 (some centres undefined) as the compound, how does the TGI (KM20L2 colon) read?
**A.** > 100 µM

**Q.** And the TGI (DLD-1 colon)?
**A.** > 100 µM

**Q.** And the TGI (HOP-18 NSCLC)?
**A.** > 100 µM

**Q.** What about the TGI (P388 leukemia) of the same compound?
**A.** > 100 µM

**Q.** And the TGI (XF 498 CNS)?
**A.** > 100 µM

**Q.** And the TGI (P388/ADR leukemia)?
**A.** > 100 µM

**Q.** And the TGI (M19-MEL melanoma)?
**A.** > 100 µM

**Q.** With CCn1cc(C(c2ccc(Cl)cc2)n2ccnc2)c2cc(Br)ccc21 (centres undefined) as the compound, how does the TGI (MDA-N) read?
**A.** 66.2 µM

**Q.** Which GI50 (KM20L2 colon) does the source give for O=[Se]([O-])c1ccccc1.O=[Se]([O-])c1ccccc1.[OH3+].[OH3+].[Pt+2] here?
**A.** 8.88 µM

**Q.** And the TGI (KM20L2 colon)?
**A.** 35.1 µM

**Q.** What about the GI50 (DLD-1 colon) of the same compound?
**A.** 4.85 µM

**Q.** And the TGI (DLD-1 colon)?
**A.** 24.3 µM

**Q.** What about the GI50 (DMS 273 small cell lung) of the same compound?
**A.** 14.6 µM

**Q.** And the TGI (DMS 273 small cell lung)?
**A.** 36 µM

**Q.** What about the GI50 (HOP-18 NSCLC) of the same compound?
**A.** 15.1 µM

**Q.** And the TGI (HOP-18 NSCLC)?
**A.** 60.6 µM

**Q.** What about the GI50 (P388 leukemia) of the same compound?
**A.** 1.84 µM

**Q.** And the TGI (P388 leukemia)?
**A.** 5.67 µM

**Q.** And the GI50 (XF 498 CNS)?
**A.** 7.72 µM

**Q.** What about the TGI (XF 498 CNS) of the same compound?
**A.** 26.2 µM

**Q.** And the GI50 (P388/ADR leukemia)?
**A.** 2.12 µM

**Q.** And the TGI (P388/ADR leukemia)?
**A.** 11.8 µM

**Q.** What about the GI50 (M19-MEL melanoma) of the same compound?
**A.** 8.43 µM

**Q.** What about the TGI (M19-MEL melanoma) of the same compound?
**A.** 44.8 µM

**Q.** Which TGI (KM20L2 colon) does the source give for Nc1n[nH]c(=O)[nH]1 here?
**A.** > 100 µM

**Q.** What about the TGI (DLD-1 colon) of the same compound?
**A.** > 100 µM

**Q.** What about the TGI (DMS 273 small cell lung) of the same compound?
**A.** > 100 µM

**Q.** What about the TGI (P388 leukemia) of the same compound?
**A.** > 100 µM

**Q.** And the TGI (XF 498 CNS)?
**A.** > 100 µM

**Q.** And the TGI (P388/ADR leukemia)?
**A.** > 100 µM

**Q.** And the TGI (M19-MEL melanoma)?
**A.** > 100 µM
